Test results: patent publication US12396948B2, “Pharmaceutical compositions for the treatment of ophthalmic conditions” (Rhodes Technologies, priority 2017, dated 2025)
Marks after values point to notes of the source that are not given here.

Legend:
Type in all cases: physicochemical
[1] = AE14B trial batch #3 assay/impurities during process (Examples 22 and 23)
[2] = Assay/impurities of AE14B trial batch #1 (Examples 17 and 19); conditions: API as dispensed
[3] = Chemical analysis of AE10C Trial #1 in-process samples and finished product (Example 36); conditions: Dronabinol AE10C Formulation, Trial #1 samples
[4] = Forced degradation of API, drug product emulsion and placebo (Examples 30 and 32)
Protocol: In this example, a forced degradation study was performed on the API, drug product emulsion, and a placebo. Only w/w % impurities are presented.
In this example, an additional forced degradation study was performed. Harsh conditions for oxidation (H2O2 concentration increased from 1% to 3%, exposure increased from 30 min to 2 hr) and conditions for photolytic degradation (exposure decreased from 24 hr to 40 min) were used in an additional forced degradation study.

[5] = Oxidation 1% H2O2 0.5 hr, 1st study
[6] = Oxidation 3% H2O2 2 hr, 2nd study

Compound: CCCCCc1cc(O)c2c(c1)OC(C)(C)[C@@H]1CCC(C)=C[C@@H]21 [API]
- % Area (THC from Imp) ([1]; API Sample): 99.6 % Area
- % Area of Impurities: CBN ([1]; API Sample): 0.18 % Area
- % Area of Impurities: RRT 0.46 ([1]; API Sample): <0.1 % Area
- % Area of Impurities: RRT 0.93 ([1]; API Sample): 0.18 % Area
- % Area of Impurities: Total ([1]; API Sample): 0.4 % Area
- % w/w of Impurities: CBN ([1]; API Sample): 0.15 % w/w
- % w/w of Impurities: RRT 0.46 ([1]; API Sample): <0.1 % w/w
- % w/w of Impurities: RRT 0.93 ([1]; API Sample): 0.15 % w/w
- % w/w of Impurities: Total ([1]; API Sample): 0.3 % w/w
- API % w/w ([1]; API Sample): 38.29 % w/w
- Assay % LC ([1]; API Sample): 79.12 % LC
- Conc. ([1]; API Sample): 38.29 % w/w
- Impurity CBN ([1]; API Sample): 0.18 % Area
- Impurity RRT 0.93 ([1]; API Sample): 0.18 % Area
- Osmolarity (mOsm/L) ([1]; API Sample): 228 mOsm/L
- Total impurities ([1]; API Sample): 0.4 % Area
- pH ([1]; API Sample): 6.60
- Osmolarity ([1]; API Sample column): 228 mOsm/L
- pH ([1]; API Sample column): 6.60
- total impurities excluding late eluting excipient impurities (RRT 1.22 and later) ([1]; Batch #3): 0.4 % area
- API % w/w ([1]; Repeated API Sample): 44.2 % w/w
- Assay % LC ([1]; Repeated API Sample): 91.29 % LC
- Impurity CBN [2]: 0.18 % Area
- THC % Area [2]: 99.84 % Area
- Total impurities [2]: 0.2 % Area
- THC Assay ([2]; calculated using 48.4% based on the certificate of analysis): 96.63* % LC
- Assay % LC [3]: 87.2 % LC
- Impurity (% Area) CBD [3]: 0.62 % Area
- Impurity (% Area) RRT 0.46 [3]: 0.19 % Area
- Impurity (% Area) RRT 0.70 [3]: 0.52 % Area
- Impurity (% Area) Total [3]: 1.3 % Area
- Impurity (% w/w) CBN [3]: 0.55 % w/w
- Impurity (% w/w) RRT 0.46 [3]: 0.17 % w/w
- Impurity (% w/w) RRT 0.93 [3]: 0.46 % w/w
- Impurity (% w/w) Total [3]: 1.2 % w/w
- % Area ([4]; Acid 24 hr, 1st study): 96.0 % Area
- % w/w Impurities CBN ([4]; Acid 24 hr, 1st study): 1.54 % w/w
- % w/w Impurities RRT 0.30 ([4]; Acid 24 hr, 1st study): 0.08 % w/w
- % w/w Impurities RRT 0.40 ([4]; Acid 24 hr, 1st study): 0.71 % w/w
- % w/w Impurities RRT 0.46 ([4]; Acid 24 hr, 1st study): 0.22 % w/w
- % w/w Impurities RRT 0.49 ([4]; Acid 24 hr, 1st study): 0.37 % w/w
- % w/w Impurities RRT 0.56 ([4]; Acid 24 hr, 1st study): 0.18 % w/w
- % w/w Impurities RRT 0.62 ([4]; Acid 24 hr, 1st study): 0.37 % w/w
- % w/w Impurities Total ([4]; Acid 24 hr, 1st study): 3.5 % w/w
- Assay % LC ([4]; Acid 24 hr, 1st study): 83.6 % LC
- % Area ([4]; Base 24 hr, 1st study): 95.3 % Area
- % w/w Impurities CBN ([4]; Base 24 hr, 1st study): 1.19 % w/w
- % w/w Impurities RRT 0.30 ([4]; Base 24 hr, 1st study): 0.13 % w/w
- % w/w Impurities RRT 0.40 ([4]; Base 24 hr, 1st study): 1.72 % w/w
- % w/w Impurities RRT 0.46 ([4]; Base 24 hr, 1st study): 0.30 % w/w
- % w/w Impurities RRT 0.56 ([4]; Base 24 hr, 1st study): 0.42 % w/w
- % w/w Impurities RRT 0.62 ([4]; Base 24 hr, 1st study): 0.31 % w/w
- % w/w Impurities Total ([4]; Base 24 hr, 1st study): 4.1 % w/w
- Assay % LC ([4]; Base 24 hr, 1st study): 82.9 % LC
- % Area ([4]; Control, 1st study): 97.5 % Area
- % w/w Impurities CBD ([4]; Control, 1st study): 0.52 % w/w
- % w/w Impurities CBN ([4]; Control, 1st study): 1.41 % w/w
- % w/w Impurities RRT 0.46 ([4]; Control, 1st study): 0.28 % w/w
- % w/w Impurities Total ([4]; Control, 1st study): 2.2 % w/w
- Assay % LC ([4]; Control, 1st study): 85.8 % LC
- % Area ([4]; Control, 2nd study): 97.4 % Area
- % w/w Impurities CBD ([4]; Control, 2nd study): 0.58 % w/w
- % w/w Impurities CBN ([4]; Control, 2nd study): 1.41 % w/w
- % w/w Impurities RRT 0.46 ([4]; Control, 2nd study): 0.26 % w/w
- % w/w Impurities Total ([4]; Control, 2nd study): 2.3 % w/w
- Assay % LC ([4]; Control, 2nd study): 85.8 % LC
- % Area [4, 5]: 97.5 % Area
- % w/w Impurities CBN [4, 5]: 1.27 % w/w
- % w/w Impurities RRT 0.46 [4, 5]: 0.25 % w/w
- % w/w Impurities RRT 0.62 [4, 5]: 0.49 % w/w
- % w/w Impurities Total [4, 5]: 2.0 % w/w
- Assay % LC [4, 5]: 78.6 % LC
- % Area [4, 6]: 97.0 % Area
- % w/w Impurities CBD [4, 6]: 0.62 % w/w
- % w/w Impurities CBN [4, 6]: 0.79 % w/w
